Test results published in US6858631B1, “Polymorphic, amorphous and hydrated forms of 5-chloro-3-(4-methanesulfonylphenyl)-6′-methyl-[2,3′]bipyridinyl” (Merck & Co., Inc., priority 1999, dated 2005).

Assays:
[1] = Relative thermodynamic stability and interconversion of polymorphic forms; assay type: physicochemical
Method: (§1) Forms I and IV are enantiotropic with Form IV converting to Form I at temperatures greater than 45° C. when in contact with organic solvents.

[2] = Relative solubility of polymorphic forms; assay type: physicochemical; conditions: at temperatures below 45° C.
Method: as §1

Cc1ccc(-c2ncc(Cl)cc2-c2ccc(S(C)(=O)=O)cc2)cn1 [Form IV, 5-chloro-3-(4-methanesulfonylphenyl)-6′-methyl-[2,3′]bipyridinyl]
stability relative to Form I ([1]; at temperatures below 45° C.): slightly more stable
temperature at which Form IV converts to Form I (enantiotropic) ([1]; in contact with organic solvents): greater than 45 °C
solubility relative to Form I [2]: slightly less soluble
